Usually IC50 stands for the concentration that inhibits the measured activity by half.

The test system of one assay is A549. The experiment in a line: Cytotoxicity against human A549 cells by SRB assay. It counts as functional, cell-based.
A further assay has as its system HepG2. The experiment in a line: Cytotoxicity against human HepG2 cells by SRB assay. It counts as functional, cell-based.

In the case of `CC(C)=CC(=O)NC1=C(CC2=C(NC(=O)C=C(C)C)N3[C@@H](C)[C@H]4O[C@H]4[C@@]3(C)C2=O)C(=O)[C@]2(C)C[C@H](O)[C@H](C)N12`, the concentration for half-maximal inhibition (IC50) with A549 turned out to be 1.1 µM; with HepG2, 0.3 µM.
As to `CC(C)=CC(=O)NC1=C(CC2=C(NC(=O)C=C(C)C)N3[C@@H](C)[C@H]4O[C@H]4[C@@]3(C)C2=O)C(=O)[C@]2(C)[C@H](O)C[C@H](C)N12`, the 50% inhibitory concentration (IC50) in the assay on A549 is 20.2 µM; with HepG2 it was 7.3 µM.
On to `CC(C)=CC(=O)NC1=C(CC2=C(NC(=O)C=C(C)C)N3[C@@H](C)[C@H]4O[C@H]4[C@@]3(C)C2=O)C(=O)[C@]2(C)[C@@H]3O[C@@H]3[C@H](C)N12`, for which the 50% inhibitory concentration (IC50) was 39.2 µM in the assay with A549 and 10.8 µM in the assay with HepG2.
As to `CC(C)=CC(=O)NC1=CC(=O)[C@]2(C)C[C@H](O)[C@H](C)N12` [BOHEMAMINE B], the IC50 with A549 is 502 µM; in the assay on HepG2 it was 181 µM.
For `CC(C)=CC(=O)NC1=CC(=O)[C@]2(C)[C@@H]3O[C@@H]3[C@H](C)N12` [BOHEMAMINE], the IC50 with A549 stood at 290 µM; with HepG2, 29.7 µM.
The molecule `COc1cccc2c1C(=O)c1c(O)c3c(c(O)c1C2=O)C[C@@](O)(C(=O)CO)C[C@@H]3O[C@H]1C[C@H](N)[C@H](O)[C@H](C)O1` [DOXORUBICIN] gave a half-inhibitory concentration (IC50) in the assay on A549 of 1.4 µM.

Source of the values: ChEMBL document CHEMBL4130510, “Cytotoxic Dibohemamines D-F from a Streptomyces Species” (J Nat Prod, 2017).
